Test results: patent US8426437B2, “Pyrroloquinoline derivatives and their use as protein kinases inhibitors” (Pierre Fabre Medicament, priority 2005, dated 2013)
Where a name gives a salt, the structure may show the parent alone.

Target: T1, RET (Homo sapiens, UniProt P07949)
T1 construct: purchased Upstate 14-570MG
Assay: Inhibition of RET kinase activity, recombinant RET method (Kinase-Glo)
Type: biochemical
Conditions: RET 2 μg/ml, poly-EY4 substrate, 20 μM ATP, two hours at 30° C.
Protocol: The inhibition of the kinase activity of the compounds of the invention is assessed by measuring their IC50 on RET.
where: • Y is the value of the luminescence • X is the logarithm of the concentration of the compound • Bottom is the minimum Y value • Top is the maximum Y value • LogIC50 is the value of X when Y is 50% from Top—Bottom.
The quantity of RET required is 2 μg/ml.
The following buffer is used for dilution of RET: 20 mM MOPS/NaOH pH7.0, 1 mM EDTA, 5% glycerol, 0.01% Brij35 (Sigma B4184), 0.1% 2-mercaptoethanol, 1 mg/ml BSA (Sigma A3059-10G).
The dilution of the compounds of the invention is distributed so as to obtain a scale of final concentrations between 10 nM and 30 μM.
After incubation of the reaction mixture for two hours at 30° C., the level of ATP that remains is assayed using the Kinase-Glo Luminescent Kinase Assay (Promega #V6712) according to the conditions recommended by the supplier. The luminescence induced is read in a plate reader (Envision-Perkin Elmer).

T1 sequence (P07949 29-1114): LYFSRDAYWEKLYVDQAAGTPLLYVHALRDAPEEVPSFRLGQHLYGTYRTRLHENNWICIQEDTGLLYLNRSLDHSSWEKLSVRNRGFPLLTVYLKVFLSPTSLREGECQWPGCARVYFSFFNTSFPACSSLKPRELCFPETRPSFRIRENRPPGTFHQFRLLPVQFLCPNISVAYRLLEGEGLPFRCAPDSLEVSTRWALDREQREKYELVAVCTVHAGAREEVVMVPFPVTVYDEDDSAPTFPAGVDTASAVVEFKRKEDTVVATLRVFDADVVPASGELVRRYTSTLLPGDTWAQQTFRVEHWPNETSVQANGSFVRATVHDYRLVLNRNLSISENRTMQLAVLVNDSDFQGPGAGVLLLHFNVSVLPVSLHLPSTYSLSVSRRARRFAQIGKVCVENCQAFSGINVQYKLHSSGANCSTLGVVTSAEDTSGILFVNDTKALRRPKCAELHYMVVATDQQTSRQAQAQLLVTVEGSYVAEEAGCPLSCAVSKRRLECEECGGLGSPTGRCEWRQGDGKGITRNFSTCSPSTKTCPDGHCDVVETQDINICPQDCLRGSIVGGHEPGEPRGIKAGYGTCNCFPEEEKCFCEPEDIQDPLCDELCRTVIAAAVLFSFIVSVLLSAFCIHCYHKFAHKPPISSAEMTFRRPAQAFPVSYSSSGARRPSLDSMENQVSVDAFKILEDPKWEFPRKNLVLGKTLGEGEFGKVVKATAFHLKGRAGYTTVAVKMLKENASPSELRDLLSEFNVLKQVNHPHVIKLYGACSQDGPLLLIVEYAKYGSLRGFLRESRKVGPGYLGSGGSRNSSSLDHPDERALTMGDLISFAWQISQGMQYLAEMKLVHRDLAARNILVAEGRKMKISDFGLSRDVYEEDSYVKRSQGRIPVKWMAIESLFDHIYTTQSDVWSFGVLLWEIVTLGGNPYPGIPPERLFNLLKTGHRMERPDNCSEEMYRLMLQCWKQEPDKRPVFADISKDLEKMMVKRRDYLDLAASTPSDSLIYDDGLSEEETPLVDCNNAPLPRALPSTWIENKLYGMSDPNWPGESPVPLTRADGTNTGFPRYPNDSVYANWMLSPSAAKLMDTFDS

SMILES	IC50 [nM]
CCOC(=O)c1c[nH]c2c(=O)[nH]c3ccc(-c4cccc(NC(=O)OC(C)(C)C)c4)cc3c12 [Compound 233, 8-(3-tert-Butoxycarbonylaminophenyl)-4-oxo-4,5-dihydro-3H-pyrrolo[2,3-c]quinoline-1-ethyl carboxylate]	1000 to 10000
O=C(NCCc1c[nH]c2ccccc12)c1c[nH]c2c(=O)[nH]c3ccccc3c12 [Compound 84, N-[2-(1H-Indol-3-yl)-ethyl]-4-oxo-4,5-dihydro-3H-pyrrolo[2,3-c]quinoline-1-carboxamide]	10000 to 100000
CCOC(=O)c1c[nH]c2c(=O)[nH]c3ccc(S(=O)(=O)Nc4ccccc4C)cc3c12 [Compound 4, 4-Oxo-8-o-tolylsulfamoyl-4,5-dihydro-3H-pyrrolo[2,3-c]quinoline-1-ethyl carboxylate]	< 100
O=C(NCC1CCCCC1)c1c[nH]c2c(=O)[nH]c3ccccc3c12 [Compound 82, N-(Cyclohexylmethyl)-4-oxo-4,5-dihydro-3H-pyrrolo[2,3-c]quinoline-1-carboxamide]	10000 to 100000
CCCOC(=O)c1c[nH]c2c(=O)[nH]c3ccc(-c4cccc(S(C)(=O)=O)c4)cc3c12 [Compound 254, 8-(3-Methanesulfonyl-phenyl)-4-oxo-4,5-dihydro-3H-pyrrolo[2,3-c]quinoline-1-propyl carboxylate]	100 to 1000
CCOC(=O)c1c[nH]c2c(=O)[nH]c3ccc(S(=O)(=O)Nc4cccc(Cl)c4)cc3c12 [Compound 10, 8-(3-Chlorophenylsulfamoyl)-4-oxo-4,5-dihydro-3H-pyrrolo[2,3-c]quinoline-1-ethyl carboxylate]	100 to 1000
CCOC(=O)c1c[nH]c2c(=O)[nH]c3ccc(NS(=O)(=O)c4ccc(C)cc4)cc3c12 [Compound 47, 4-Oxo-8-(4-toluenesulfonylamino)-4,5-dihydro-3H-pyrrolo[2,3-c]quinoline-1-ethyl carboxylate]	100 to 1000
CCCOC(=O)c1c[nH]c2c(=O)[nH]c3ccc(S(=O)(=O)N(C)C4CCSCC4)cc3c12 [Compound 131, 8-[Methyl-(tetrahydro-thiopyran-4-yl)-sulfamoyl]-4-oxo-4,5-dihydro-3H-pyrrolo[2,3-c]quinoline-1-propyl carboxylate]	100 to 1000
CCCOC(=O)c1c[nH]c2c(=O)[nH]c3ccc(S(=O)(=O)N(C[C@H](C)NC(=O)OC(C)(C)C)C4CC4)cc3c12 [Compound 152, (S)-8-[(2-tert-Butoxycarbonylamino-propyl)-cyclopropyl-sulfamoyl]-4-oxo-4,5-dihydro-3H-pyrrolo[2,3-c]quinoline 1-propyl carboxylate]	100 to 1000
CCOC(=O)c1c[nH]c2c(=O)[nH]c3ccc(-c4csc(NNc5ccccc5)n4)cc3c12 [Compound 280, 4-Oxo-8-[2-(N′-phenyl-hydrazino)-thiazol-4-yl]-4,5-dihydro-3H-pyrrolo[2,3-c]quinoline-1-ethyl carboxylate]	1000 to 10000
CCCOC(=O)c1c[nH]c2c(=O)[nH]c3cc(Cl)c(S(=O)(=O)N(C)C)cc3c12 [Compound 189, 7-Chloro-8-dimethylsulfamoyl-4-oxo-4,5-dihydro-3H-pyrrolo[2,3-c]quinoline-1-propyl carboxylate]	100 to 1000
CCOC(=O)c1c[nH]c2c(=O)[nH]c3ccc(S(=O)(=O)Nc4ccc(F)c(F)c4)cc3c12 [Compound 18, 8-(3,4-Difluorophenylsulfamoyl)-4-oxo-4,5-dihydro-3H-pyrrolo[2,3-c]quinoline-1-ethyl carboxylate]	< 100
CCOC(=O)c1c[nH]c2c(=O)[nH]c3ccc(-c4ccccc4NS(C)(=O)=O)cc3c12 [Compound 232, 8-(2-Methanesulfonylaminophenyl)-4-oxo-4,5-dihydro-3-pyrrolo[2,3-c]quinoline-1-ethyl carboxylate]	100 to 1000
CCOC(=O)c1c[nH]c2c(=O)[nH]c3ccc(S(=O)(=O)Nc4cccnc4)cc3c12 [Compound 23, 4-Oxo-8-(pyridin-3-ylsulfamoyl)-4,5-dihydro-3H-pyrrolo[2,3-c]quinoline-1-ethyl carboxylate]	100 to 1000
CCOC(=O)c1c[nH]c2c(=O)[nH]c3ccc(/C=C/C(=O)NCCC(=O)OC)cc3c12 [Compound 69, 8-[2-(2-Methoxycarbonyl-ethylcarbamoyl)-vinyl]-4-oxo-4,5-dihydro-3H-pyrrolo[2,3-c]quinoline-1-ethyl carboxylate]	1000 to 10000
CCOC(=O)c1c[nH]c2c(=O)[nH]c3ccc(NS(=O)(=O)c4cccc(C)c4)cc3c12 [Compound 48, 4-Oxo-8-(3-toluenesulfonylamino)-4,5-dihydro-3H-pyrrolo[2,3-c]quinoline-1-ethyl carboxylate]	10000 to 100000
COC(=O)c1c[nH]c2c(=O)[nH]c3ccc(S(=O)(=O)NN4CC5CCCC5C4)cc3c12 (stereo not shown) [Compound 192, 8-(Hexahydro-cyclopenta[c]pyrrol-2-ylsulfamoyl)-4-oxo-4,5-dihydro-3H-pyrrolo[2,3-c]quinoline-1-methyl carboxylate]	1000 to 10000

SMILES	IC50 [nM]
CCN(CC)CCOC(=O)c1c[nH]c2c(=O)[nH]c3ccc(F)cc3c12 [Compound 100, 8-Fluoro-4-oxo-4,5-dihydro-3H-pyrrolo[2,3-c]quinoline-1-carboxylate of 2-diethylaminoethyl]	10000 to 100000
CCOC(=O)c1c[nH]c2c(=O)[nH]c3ccc(-c4ccc(OC)nc4)cc3c12 [Compound 260, 8-(6-Methoxy-pyridin-3-yl)-4-oxo-4,5-dihydro-3H-pyrrolo[2,3-c]quinoline-1-ethyl carboxylate]	1000 to 10000
CN(c1ccc(F)cc1)S(=O)(=O)c1ccc2[nH]c(=O)c3[nH]cc(C(=O)OCCCN)c3c2c1 [Compound 107, Trifluoroacetate of 8-[(4-fluorophenyl)-methyl-sulfamoyl]-4-oxo-4,5-dihydro-3H-pyrrolo[2,3-c]quinoline-1-3-aminopropyl carboxylate]	10000 to 100000
CCOC(=O)c1c[nH]c2c(=O)[nH]c3ccc(S(=O)(=O)C4CCCCC4)cc3c12 [Compound 197, 8-Cyclohexanesulfonyl-4-oxo-4,5-dihydro-3H-pyrrolo[2,3-c]quinoline-1-ethyl carboxylate]	100 to 1000
CCCOC(=O)c1c[nH]c2c(=O)[nH]c3ccc(S(=O)(=O)N(CC)[C@H]4CCN(C)C4)cc3c12 [Compound 161, (S)-8-[Ethyl-(1-methyl-pyrrolidin-3-yl)-sulfamoyl]-4-oxo-4,5-dihydro-3H-pyrrolo[2,3-c]quinoline-1-propyl carboxylate]	< 100
CCCOC(=O)c1c[nH]c2c(=O)[nH]c3cc(OC)c(S(=O)(=O)N(C)C4CC4)cc3c12 [Compound 188]	1000 to 10000
CCOC(=O)c1c[nH]c2c(=O)[nH]c3ccc(-c4csc(Nc5c(Cl)cccc5Cl)n4)cc3c12 [Compound 274, 8-[2-(2,6-Dichlorophenylamino)-thiazol-4-yl]-4-oxo-4,5-dihydro-3H-pyrrolo[2,3-c]quinoline-1-ethyl carboxylate]	10000 to 100000
CCOC(=O)c1c[nH]c2c(=O)[nH]c3ccc(-c4ccno4)cc3c12 [Compound 281, 8-Isoxazol-5-yl-4-oxo-4,5-dihydro-3H-pyrrolo[2,3-c]quinoline-1-ethyl carboxylate]	100 to 1000
NC(=O)c1c[nH]c2c(=O)[nH]c3ccccc3c12 [Compound 90, 4-Oxo-4,5-dihydro-3H-pyrrolo[2,3-c]quinoline-1-carboxamide]	10000 to 100000
CN(c1ccc(F)cc1)S(=O)(=O)c1ccc2[nH]c(=O)c3[nH]cc(C(=O)OCCNC(=O)OC(C)(C)C)c3c2c1 [Compound 106, 2-tert-Butoxycarbonylaminoethyl 8-[(4-fluorophenyl)-methyl-sulfamoyl]-4-oxo-4,5-dihydro-3H-pyrrolo[2,3-c]quinoline-1-carboxylate]	10000 to 100000
CCOC(=O)c1c[nH]c2c(=O)[nH]c3cc(F)ccc3c12 [Compound 215, 7-Fluoro-4-oxo-4,5-dihydro-3H-pyrrolo[2,3-c]quinoline-1-ethyl carboxylate]	1000 to 10000
CCOC(=O)c1c[nH]c2c(=O)[nH]c3ccc(NS(=O)(=O)c4ccc(NC(C)=O)cc4)cc3c12 [Compound 52, 8-(4-Acetylamino-benzenesulfonylamino)-4-oxo-4,5-dihydro-3H-pyrrolo[2,3-c]quinoline-1-ethyl carboxylate]	1000 to 10000
CCCOC(=O)c1c[nH]c2c(=O)[nH]c3ccc(S(=O)(=O)N(C)CC(=O)OC(C)(C)C)cc3c12 [Compound 183, 8-(tert-Butoxycarbonylmethyl-methyl-sulfamoyl)-4-oxo-4,5-dihydro-3H-pyrrolo[2,3-c]quinoline-1-propyl carboxylate]	1000 to 10000
CCCOC(=O)c1c[nH]c2c(=O)[nH]c3cc(F)c(S(=O)(=O)N(C)CCN(C)C)cc3c12 [Compound 184, 8-[(2-Dimethylamino-ethyl)-methyl-sulfamoyl]-7-fluoro-4-oxo-4,5-dihydro-3H-pyrrolo[2,3-c]quinoline-1-propyl carboxylate]	< 100
COC(=O)c1c[nH]c2c(=O)[nH]c3ccc(S(=O)(=O)NC4CCCC4)cc3c12 [Compound 92, 8-Cyclopentylsulfamoyl-4-oxo-4,5-dihydro-3H-pyrrolo[2,3-c]quinoline-1-methyl carboxylate]	1000 to 10000
CCOC(=O)c1c[nH]c2c(=O)[nH]c3ccc(-c4ccc5c(ccn5C(=O)OC(C)(C)C)c4)cc3c12 [Compound 253, 8-(1-tert-Butoxycarbonyl-1H-indol-5-yl)-4-oxo-4,5-dihydro-3H-pyrrolo[2,3-c]quinoline-1-ethyl carboxylate]	1000 to 10000
CCCOC(=O)c1c[nH]c2c(=O)[nH]c3ccc(S(=O)(=O)N4CC[C@H](N(C)C)C4)cc3c12 [Compound 171]	100 to 1000
